# In PubChem BioAssay AID1963969 (Molecular Pharmacology Branch, DTP, NCI, 2024):
# System: 817829-284-R-J1-PDC multi-cell spheroid viability
# Assay: Anticancer human tumor 817829-284-R-J1-PDC patient-derived colon adenocarcinoma cell line growth inhibition [PI3K]
# Details: for IC50: curve of first compound; for viability, T/C: stronger effect = lower value
# Excerpt: Combinatorial screen of targeted agents with the PI3K inhibitors inavolisib, alpelisib, duvelisib, and copanlisib in multi-cell type tumor spheroids
# A high-throughput screen of multi-cell type tumor spheroids was designed to identify active combinations of targeted small molecules and PI3K pathway inhibitors. Complex spheroids include a stromal component modeled by human endothelial cells (HUVEC) and fibroblasts modeled by human mesenchymal stem cells (MSCs). The concentration ranges selected for each drug and investigational agent were based upon clinically achievable concentrations if the clinical Cmax of the agent was known.
# Compounds. The drugs and investigational agents: inavolisib (NSC800729), alpelisib (NSC765974), duvelisib (NSC772469), copanlisib (NSC816437), ipatasertib (NSC767898), afuresertib (NSC778305), talazoparib (NSC767125), sapanisertib (NSC764658), selumetinib (NSC741078), tovorafenib (DAY101, NSC766906), vemurafenib (NSC761431), ravoxertinib (NSC781343), sotorasib (NSC818433), MRTX1133 (NSC 836407), abemaciclib (NSC 768073), palbociclib (NSC758247), venetoclax (NSC 766270), SY5609 (NSC837396), enzalutamide (NSC755605), and darolutamide (NSC825331), were obtained from the National Cancer Institute (NCI) Developmental Therapeutics Program Chemical Repository. The FDA-approved anticancer drug set is available from the NCI Developmental Therapeutics Program. […] The stock solutions were prepared in dimethyl sulfoxide (DMSO, Sigma-Aldrich, St. Louis, MO, cat. D2650) at 800-fold the tested concentration and stored at -70 degrees C prior to their use. All drugs and investigational agents were tested over a range starting from a high concentration at or near the clinical Cmax and decreasing in half-log increments. If the clinical Cmax for an agent had not been determined, the highest concentration tested was 10 microM.
# Cell Culture. All cells were maintained in an incubator at 37 degrees C and 5% CO2 with 95% humidity. The PDC lines were cultured according to standard operating procedures established by the NCI PDMR (https://pdmr.cancer.gov/sops/default.htm). All PDCs were thawed and cultured in Matrigel-coated flasks prepared with a working solution of 1X Ham's F-12 nutrient mix, without supplementation (Invitrogen, Waltham, MA, cat. 11765054), 100 U/mL penicillin-streptomycin (Invitrogen, cat. 15140122), and 2.5% Matrigel (Corning Inc., Corning, NY, cat. 354248) for the first three passages. The 354836-022-R-J1-PDC, 475296-252-R-J1-PDC, and 997726-040-R-J2-PDC lines were cultured in 6A media, which includes advanced DMEM/F-12 (Thermo Fisher Scientific, cat. 12634028), 10 mM HEPES (Thermo Fisher Scientific, cat. 15630080), 1X GlutaMAX supplement (Thermo Fisher Scientific, cat. 35050061), 0.1 mg/mL primocin (InvivoGen, San Diego, CA, cat. ant-pm-2), 10% defined fetal bovine serum, heat inactivated (HyClone Laboratories Inc., Logan, UT, cat. SH30070.03HI), 50% L-WRN conditioned media (ATCC, cat. CRL-3276), 1.25 mM N-Acetyl-L-cysteine (Sigma-Aldrich, cat. A9165), 10 mM nicotinamide (Sigma-Aldrich, cat. N0636), 1X B-27 supplement (Thermo Fisher Scientific, cat. 17504044), 1X N-2 supplement (Thermo Fisher Scientific, cat. 17502048), and 10 microM Y-27632 dihydrochloride (Tocris Bioscience, Bristol, United Kingdom, cat. 1254). The 624824-186-R-J2-PDC line was cultured in 6C/Colon 1B media, which includes all 6A media components plus 50 ng/mL human EGF recombinant protein (Thermo Fisher Scientific, cat. PHG0311). […]
# 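Also: spheroids exposed to agents for seven days before readout.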
# 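For viability, T/C in this document: percent of vehicle DMSO control viability which is 100%.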
compound,measurement,setting,value
Cn1ncc(Cl)c1-c1cc(C(=O)NC(CN)Cc2cccc(F)c2)sc1Cl (configuration not stated) + CC(Nc1ccc2c(c1)OCCn1cc(N3C(=O)OCC3C(F)F)nc1-2)C(N)=O,IC50,second compound 0.00316 µM,< 31.6 nM
same,IC50,second compound 0.01 µM,106 nM
same,IC50,second compound 0.0316 µM,< 31.6 nM
same,IC50,second compound 0.1 µM,41.6 nM
same,IC50,second compound 0.316 µM,< 31.6 nM
same,IC50,second compound 1 µM,< 31.6 nM
same,"viability, T/C","second compound 0.00316 µM, first compound 0.0316 µM",73.2%
same,"viability, T/C","second compound 0.00316 µM, first compound 0.1 µM",38.6%
same,"viability, T/C","second compound 0.00316 µM, first compound 0.316 µM",22.8%
same,"viability, T/C","second compound 0.00316 µM, first compound 1 µM",16.9%
same,"viability, T/C","second compound 0.00316 µM, first compound 3.16 µM",16.3%
same,"viability, T/C","second compound 0.00316 µM, first compound 10 µM",98.6%
same,"viability, T/C","second compound 0.01 µM, first compound 0.0316 µM",81.4%
same,"viability, T/C","second compound 0.01 µM, first compound 0.1 µM",51%
same,"viability, T/C","second compound 0.01 µM, first compound 0.316 µM",22%
same,"viability, T/C","second compound 0.01 µM, first compound 1 µM",19.1%
same,"viability, T/C","second compound 0.01 µM, first compound 3.16 µM",14.4%
same,"viability, T/C","second compound 0.01 µM, first compound 10 µM",69%
same,"viability, T/C","second compound 0.0316 µM, first compound 0.0316 µM",49.4%
same,"viability, T/C","second compound 0.0316 µM, first compound 0.1 µM",30.6%
same,"viability, T/C","second compound 0.0316 µM, first compound 0.316 µM",14.9%
same,"viability, T/C","second compound 0.0316 µM, first compound 1 µM",16.5%
same,"viability, T/C","second compound 0.0316 µM, first compound 3.16 µM",14.7%
same,"viability, T/C","second compound 0.0316 µM, first compound 10 µM",55.9%
same,"viability, T/C","second compound 0.1 µM, first compound 0.0316 µM",56.3%
same,"viability, T/C","second compound 0.1 µM, first compound 0.1 µM",31.4%
same,"viability, T/C","second compound 0.1 µM, first compound 0.316 µM",21%
same,"viability, T/C","second compound 0.1 µM, first compound 1 µM",16.7%
same,"viability, T/C","second compound 0.1 µM, first compound 3.16 µM",14%
same,"viability, T/C","second compound 0.1 µM, first compound 10 µM",53.2%
same,"viability, T/C","second compound 0.316 µM, first compound 0.0316 µM",46.4%
same,"viability, T/C","second compound 0.316 µM, first compound 0.1 µM",33.7%
same,"viability, T/C","second compound 0.316 µM, first compound 0.316 µM",16.8%
same,"viability, T/C","second compound 0.316 µM, first compound 1 µM",13.2%
same,"viability, T/C","second compound 0.316 µM, first compound 3.16 µM",11.9%
same,"viability, T/C","second compound 0.316 µM, first compound 10 µM",44.7%
same,"viability, T/C","second compound 1 µM, first compound 0.0316 µM",34.4%
same,"viability, T/C","second compound 1 µM, first compound 0.1 µM",25.6%
same,"viability, T/C","second compound 1 µM, first compound 0.316 µM",16.7%
same,"viability, T/C","second compound 1 µM, first compound 1 µM",14.2%
same,"viability, T/C","second compound 1 µM, first compound 3.16 µM",12.3%
same,"viability, T/C","second compound 1 µM, first compound 10 µM",84.7%
